In one series the test system is human and porcine sclera. Particulars: human and porcine sclera in vitro; cited from earlier work.
The subject of series [1] is sclera of enucleated eyes. The experiment in a line: Ocular inflation model of myopia (enucleated eyes, elevated IOP 85 mmHg). More on the design: species or system New Zealand White Rabbits. Particulars: 0.3% soak 5 min, 10 mW/cm^2, 365 nm, 10 min anterior and 10 min posterior.
Experimental: Stabilization of ocular shape is evaluated in vitro using pairs of enucleated eyes from young (˜1-2 weeks) New Zealand White Rabbits, one eye treated and the fellow eye as control. To mimic and accelerate aspects of the loading geometry present in vivo, the intact globes are mechanically tested by imposing an elevated intraocular pressure: a syringe connects the intraocular fluid to an elevated reservoir of Dulbecco's phosphate buffered saline (DPBS) while the exterior of the eye is immersed in DPBS at ambient pressure (FIG. 1).
The size and shape of the globes are simultaneously recorded from two orthogonal perspectives over time. To prepare eyes for the tests, the epithelium is optionally removed from the cornea with a cotton swab, and external fat is removed from the globe. (Note that permeation of the photoinitiator into tissue is examined separately below.) The eyes are then soaked in control (Dulbecco's PBS) or treatment solutions (e.g., 0.029 mM Eosin Y, 90 mM TEOA, in DPBS) for 5 min. After soaking, the eyes are patted dry to remove extra solution from the surface, and then irradiated for 5 min from the front and 5 min from the back with, e.g., 34 mW/cm^2 at 500±50 nm for Eosin Y/TEOA. […] Photographs taken every 10 minutes for approximately 24 hours are analyzed to quantify the extension of the cornea and sclera.
In the next series the test system is porcine sclera sections. The experiment in a line: Rheometric analysis of sclera sections (modulus pre- and post-treatment). The settings on record: photoinitiator alone, compared with photoinitiator plus PEGDM.
The conditions of series [2]: after use of topically applied proparacaine (Ehlers et al.); cited from earlier work.

SMILES strings stand for the structures. “Also recorded” adds a separate entry of the source.

Here are results for 5 molecules from US8414911B2, “Photochemical therapy to affect mechanical and/or chemical properties of body tissue” (The Regents of the University of California, priority 2006, dated 2013).

Text for porcine sclera sections: The ability of initiator with or without crosslinking compounds to strengthen the sclera was initially evaluated using rheometric analysis of tissue sections. Sclera sections (8 mm diameter) were cut from porcine eyes and tested on a TA Instruments AR1000 rheometer (using a cleated parallel plate geometry) to quantify changes in modulus pre- and post-treatment. Two example photoinitiators were selected for initial evaluation.

On to `O=CCCCC=O` [Glutaraldehyde], for which, in the series on human and porcine sclera, the “increase of Young's modulus compared to untreated controls” value (“increase of Young's modulus” below) was 122%.

As to `CC(C)(O)C(=O)c1ccc(OCCO)cc1` [compound 12959, 2-hydroxy-1-[4-(2-hydroxyethoxy)phenyl]-2-methyl-1-propanone], the “stabilization of eye shape / sclera under elevated IOP” value in series [1] is “hold a steady shape; also recorded: stabilize the sclera”. Further, the increases in modulus entry with porcine sclera sections is reported as “comparable increases in modulus”.

Take `O=CC(O)CO` (stereo not drawn) [glyceraldehyde]: the “increase of Young's modulus” value with human and porcine sclera is on record as 34%.

On to `CCCOc1ccc(C(=O)OCCN(CC)CC)cc1N` [proparacaine], for which the “increases in drug delivery to the aqueous” value in series [2] was 4 fold.

Consider `Cc1cc2nc3c(=O)[nH]c(=O)nc-3n(C[C@H](O)[C@H](O)[C@H](O)CO)c2cc1C` [riboflavin-UVA, riboflavin], for which the “increase of Young's modulus” value with human and porcine sclera is reported as 29%.
